Read-outs that look alike come from different tables or passages of the source.
Key:
human orexin-1 receptor = biological target: T1, human orexin-1 receptor (Homo sapiens, UniProt O43613); experiment: FLIPR intracellular calcium assay, orexin receptor antagonistic activity, CHO cells expressing human orexin-1 receptor; assay type: cell-based; settings: read-out: OX1 IC50
T1 construct: expressed in transfected cells; host or cells: CHO cells (G418 selection)
T1 sequence (O43613 1-425): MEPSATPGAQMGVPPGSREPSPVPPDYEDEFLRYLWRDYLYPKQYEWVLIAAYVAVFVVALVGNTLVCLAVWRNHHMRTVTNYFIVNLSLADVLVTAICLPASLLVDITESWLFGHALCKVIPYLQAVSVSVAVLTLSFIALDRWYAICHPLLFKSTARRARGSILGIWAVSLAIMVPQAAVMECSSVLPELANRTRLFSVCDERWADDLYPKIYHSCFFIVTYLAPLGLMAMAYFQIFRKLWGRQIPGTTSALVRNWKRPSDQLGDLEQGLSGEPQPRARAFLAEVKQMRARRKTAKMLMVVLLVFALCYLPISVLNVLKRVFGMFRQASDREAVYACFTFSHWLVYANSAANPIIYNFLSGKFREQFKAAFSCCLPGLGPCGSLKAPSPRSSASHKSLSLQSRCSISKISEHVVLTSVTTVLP
Experimental: (§1) The orexin receptor antagonistic activity of the compounds of formula (I) is determined in accordance with one of the following experimental methods.
(§2) Chinese hamster ovary (CHO) cells expressing the human orexin-1 receptor and the human orexin-2 receptor, respectively, are grown in culture medium (Ham F-12 with L-Glutamine) containing 300 μg/ml G418, 100 U/ml penicillin, 100 μg/ml streptomycin and 10% heat inactivated fetal calf serum (FCS). The cells are seeded at 20'000 cells/well into 384-well black clear bottom sterile plates (Greiner). The seeded plates are incubated overnight at 37° C. in 5% CO2.
(§3) Human orexin-A as an agonist is prepared as 1 mM stock solution in MeOH: water (1:1), diluted in HBSS containing 0.1% bovine serum albumin (BSA), NaHCO3: 0.375 g/l and 20 mM HEPES for use in the assay at a final concentration of 3 nM.
(§4) Antagonists are prepared as 10 mM stock solution in DMSO, then diluted in 384-well plates, first in DMSO, then in HBSS containing 0.1% bovine serum albumin (BSA), NaHCO3: 0.375 g/l and 20 mM HEPES.
(§5) On the day of the assay, 50 μl of staining buffer (HBSS containing 1% FCS, 20 mM HEPES, NaHCO3: 0.375 g/l, 5 mM probenecid (Sigma) and 3 μM of the fluorescent calcium indicator fluo-4 AM (1 mM stock solution in DMSO, containing 10% pluronic) is added to each well.
(§6) The 384-well cell-plates are incubated for 50 min at 37° C. in 5% CO2 followed by equilibration at RT for 30-120 min before measurement.
(§7) Within the Fluorescent Imaging Plate Reader (FLIPR2 or FLIPR Tetra, Molecular Devices), antagonists are added to the plate in a volume of 10 μl/well, incubated for 10 min and finally 10 μl/well of agonist is added. Fluorescence is measured for each well at 1 second intervals, and the height of each fluorescence peak is compared to the height of the fluorescence peak induced by 3 nM orexin-A with vehicle in place of antagonist. For each antagonist, the IC50 value (the concentration of compound needed to inhibit 50% of the agonistic response) is determined. Optimized conditions may be achieved by adjustment of pipetting speed and cell splitting regime. The calculated IC50 values of the compounds may fluctuate depending on the daily cellular assay performance. Fluctuations of this kind are known to those skilled in the art.

human orexin-2 receptor = biological target: T2, human orexin-2 receptor (Homo sapiens, UniProt O43614); experiment: FLIPR intracellular calcium assay, orexin receptor antagonistic activity, CHO cells expressing human orexin-2 receptor; assay type: cell-based; settings: read-out: OX2 IC50
T2 construct: expressed in transfected cells; host or cells: CHO cells (G418 selection)
T2 sequence (O43614 1-444): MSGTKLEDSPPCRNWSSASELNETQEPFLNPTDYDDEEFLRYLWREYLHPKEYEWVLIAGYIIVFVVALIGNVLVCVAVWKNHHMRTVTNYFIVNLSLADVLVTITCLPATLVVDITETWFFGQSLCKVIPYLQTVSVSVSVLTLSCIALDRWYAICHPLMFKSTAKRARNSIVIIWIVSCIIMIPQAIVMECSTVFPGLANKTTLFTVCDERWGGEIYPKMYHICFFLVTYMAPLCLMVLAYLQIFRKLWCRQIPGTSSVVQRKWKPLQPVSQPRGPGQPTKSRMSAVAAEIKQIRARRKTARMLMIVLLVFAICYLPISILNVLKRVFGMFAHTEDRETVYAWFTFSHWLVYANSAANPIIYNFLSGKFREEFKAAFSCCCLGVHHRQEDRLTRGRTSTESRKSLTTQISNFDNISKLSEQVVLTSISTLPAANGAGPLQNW
Experimental: as §1, §2, §3, §4, §5, §6, §7

[1] = measured with FLIPR 2, 3 nM orexin-A as agonist
[2] = marked with *: measured with FLIPR Tetra, 3 nM orexin-A as agonist

Row | IC50 (human orexin-1 receptor; [1]) [nM] | IC50 (human orexin-2 receptor; [1]) [nM] | IC50 (human orexin-1 receptor; [2]) [nM] | IC50 (human orexin-2 receptor; [2]) [nM] | Structure (SMILES)
1 | 1 | 24 |  |  | Cc1nc2sccn2c1C(=O)NC[C@@H]1CCCCN1C(=O)c1nc(-c2ccc(F)cc2)sc1-c1ccc(F)cc1 [Example 3]
2 | 2 | 7 |  |  | COc1cccc(-c2nc(C(=O)N3CCCC[C@H]3CNC(=O)c3c(C)nc4sccn34)c(-c3ccc(F)cc3)s2)c1 [Example 5, (S)-6-methyl-imidazo[2,1-b]thiazole-5-carboxylic acid{1-[5-(4-fluoro-phenyl)-2-(3-methoxy-phenyl)-thiazole-4-carbonyl]-piperidin-2-ylmethyl}-amide]
3 |  |  | 20 | 68 | O=C(NC[C@@H]1CCCCN1C(=O)c1nc(-c2ccccc2)sc1-c1ccccc1F)c1cccc2c1CCO2 [Example 17, (S)-2,3-dihydro-benzofuran-4-carboxylic acid{1-[5-(2-fluoro-phenyl)-2-phenyl-thiazole-4-carbonyl]-piperidin-2-ylmethyl}-amide]
4 |  |  | 10 | 60 | Cn1cc(C(=O)NC[C@@H]2CCCCN2C(=O)c2nc(-c3ccccc3)sc2-c2ccccc2F)c2ccccc21 [Example 24, (S)-1-methyl-1H-indole-3-carboxylic acid{1-[5-(2-fluoro-phenyl)-2-phenyl-thiazole-4-carbonyl]-piperidin-2-ylmethyl}-amide]
5 | 2 | 8 |  |  | Cc1ccc(-c2sc(-c3ccccc3)nc2C(=O)N2CCCC[C@H]2CNC(=O)c2c(C)nc3sccn23)cc1 [Example 38, (S)-6-methyl-imidazo[2,1-b]thiazole-5-carboxylic acid[1-(2-phenyl-5-p-tolyl-thiazole-4-carbonyl)-piperidin-2-ylmethyl]-amide]
6 |  |  | 9 | 18 | Cn1nc(C(=O)NC[C@@H]2CCCN2C(=O)c2nc(-c3cccnc3)sc2-c2cccc(Cl)c2)c2ccccc21 [Example 44, (S)-1-methyl-1H-indazole-3-carboxylic acid{1-[5-(3-chloro-phenyl)-2-pyridin-3-yl-thiazole-4-carbonyl]-pyrrolidin-2-ylmethyl}-amide]
7 | 1 | 12 |  |  | Cc1cccc(-c2nc(C(=O)N3CCC[C@H]3CNC(=O)c3c(C)nc4sccn34)c(-c3ccc(F)cc3)s2)c1 [Example 45, (S)-6-methyl-imidazo[2,1-b]thiazole-5-carboxylic acid{1-[5-(4-fluoro-phenyl)-2-m-tolyl-thiazole-4-carbonyl]-pyrrolidin-2-ylmethyl}-amide]

— patent US8288411B2, “Pyrrolidines and piperidines as orexin receptor antagonists” (Actelion Pharmaceuticals Ltd., priority 2007, dated 2012)
